Laboratory results: publication PMC7115414 (European Journal of Medicinal Chemistry, 2017)

Experiments:
SARS-CoV M^pro [1] = target: T1, SARS-CoV M^pro (Severe acute respiratory syndrome coronavirus, UniProt P0C6X7); experiment: biochemical
SARS-CoV M^pro [2] = target: T1, SARS-CoV M^pro; format: biochemical

COC(=O)c1c[nH]c(SSc2ccccc2[N+](=O)[O-])n1 [Compound 3-14, Methyl 2-((2-nitrophenyl)disulfanyl)-1H-imidazole-4-carboxylate]
IC50 (SARS-CoV M^pro [1]): 2.075 ± 0.016 µM

CCOC(=O)c1ccccc1SSc1nc(C(=O)OC)c[nH]1 [Compound 3-15, Methyl 2-((2-(ethoxycarbonyl)phenyl)disulfanyl)-1H-imidazole-4-carboxylate]
IC50 (SARS-CoV M^pro [1]): 5.95 ± 0.363 µM

COC(=O)c1c[nH]c(SSc2ccccc2C(=O)OC)n1 [Compound 3-16, Methyl 2-((2-(methoxycarbonyl)phenyl)disulfanyl)-1H-imidazole-4-carboxylate]
IC50 (SARS-CoV M^pro [1]): 3.96 ± 0.19 µM

COC(=O)c1c[nH]c(SSc2ccc(Cl)cc2)n1 [Compound 3-17, Methyl 2-((4-chlorophenyl)disulfanyl)-1H-imidazole-4-carboxylate]
IC50 (SARS-CoV M^pro [1]): 4.13 ± 0.094 µM

Clc1ccc(SSc2nnco2)cc1 [Compound 3-31, 2-((4-chlorophenyl)disulfanyl)-1,3,4-oxadiazole]
inhibition type (reciprocal plots, velocity versus substrate concentration) (SARS-CoV M^pro [2]): non-competitive inhibitor
reversibility (plot of enzyme concentration versus reaction velocity) (SARS-CoV M^pro [2]): reversible
α (effect of inhibitor on the affinity of the enzyme for its substrate) (SARS-CoV M^pro [2]): < 1

Brc1ccc(SSc2ncccn2)cc1 [Compound 3-39, 2-((4-bromophenyl)disulfanyl)pyrimidine]
inhibition type (reciprocal plots, velocity versus substrate concentration) (SARS-CoV M^pro [2]): non-competitive inhibitor
reversibility (plot of enzyme concentration versus reaction velocity) (SARS-CoV M^pro [2]): reversible
α (effect of inhibitor on the affinity of the enzyme for its substrate) (SARS-CoV M^pro [2]): < 1
